In patent publication US12077503B2, “Substituted cyclic amides and their use as herbicides” (FMC CORPORATION, priority 2015, dated 2024):

Tests used:
Format in all cases: in vivo
[1] = system: giant foxtail (Setaria faberi); assay: Test G Post-Emergence Protocol; conditions: Setaria faberi, post-emergence, 312 h, read-out: Foxtail, Giant damage rating; for pest or weed control at 15.625 g/ha: 15.625 g ai/ha, evaluated after 13 days (100=total damage to plant; 0=no damage to plant); for pest or weed control at 62.5 g/ha: 62.5 g ai/ha; for pest or weed control at 62.5 g/ha / pest or weed control at 250 g/ha: evaluated after 13 days, 100=total damage to plant, 0=no damage to plant; for pest or weed control at 250 g/ha: 250 g ai/ha
Method in brief: (§1)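 Foliar application was made 8 days after sowing, using an aqueous spray of the active in acetone/water (50:50) with 0.5% Tween 20, at doses of 15.625, 62.5 or 250 g/ha. Injury was assessed 13 days later, where 100 meant the plant was fully damaged.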

[2] = system: ivy-leaved morning glory (Ipomoea hederacea); assay: Test G Post-Emergence Protocol; conditions: Ipomoea, post-emergence, 312 h, read-out: Morningglory, Ivy-leaved damage rating; for pest or weed control at 15.625 g/ha: 15.625 g ai/ha, evaluated after 13 days (100=total damage to plant; 0=no damage to plant); for pest or weed control at 62.5 g/ha: 62.5 g ai/ha; for pest or weed control at 62.5 g/ha / pest or weed control at 250 g/ha: evaluated after 13 days, 100=total damage to plant, 0=no damage to plant; for pest or weed control at 250 g/ha: 250 g ai/ha
Method in brief: as §1

corn (Zea mays) [3] = assay: Test G Post-Emergence Protocol; conditions: Zea mays, post-emergence, 312 h, read-out: Corn damage rating; for plant injury at 15.625 g/ha: 15.625 g ai/ha, evaluated after 13 days (100=total damage to plant; 0=no damage to plant); for plant injury at 62.5 g/ha: 62.5 g ai/ha; for plant injury at 62.5 g/ha / plant injury at 250 g/ha: evaluated after 13 days, 100=total damage to plant, 0=no damage to plant; for plant injury at 250 g/ha: 250 g ai/ha
Method in brief: as §1

[4] = system: redroot pigweed (Amaranthus retroflexus); assay: Test G Post-Emergence Protocol; conditions: Amaranthus retroflexus, post-emergence, 312 h, read-out: Pigweed, Redroot damage rating; for pest or weed control at 15.625 g/ha: 15.625 g ai/ha, evaluated after 13 days (100=total damage to plant; 0=no damage to plant); for pest or weed control at 62.5 g/ha: 62.5 g ai/ha; for pest or weed control at 62.5 g/ha / pest or weed control at 250 g/ha: evaluated after 13 days, 100=total damage to plant, 0=no damage to plant; for pest or weed control at 250 g/ha: 250 g ai/ha
Method in brief: as §1

[5] = system: barnyardgrass (Echinochloa crus-galli); assay: Test G Post-Emergence Protocol; conditions: Echinochloa crus-galli, post-emergence, 312 h, read-out: Barnyardgrass damage rating; for pest or weed control at 15.625 g/ha: 15.625 g ai/ha, evaluated after 13 days (100=total damage to plant; 0=no damage to plant); for pest or weed control at 62.5 g/ha: 62.5 g ai/ha; for pest or weed control at 62.5 g/ha / pest or weed control at 250 g/ha: evaluated after 13 days, 100=total damage to plant, 0=no damage to plant; for pest or weed control at 250 g/ha: 250 g ai/ha
Method in brief: as §1

[6] = system: velvetleaf (Abutilon theophrasti); assay: Test G Post-Emergence Protocol; conditions: Abutilon theophrasti, post-emergence, 312 h, read-out: Velvetleaf damage rating; for pest or weed control at 15.625 g/ha: 15.625 g ai/ha, evaluated after 13 days (100=total damage to plant; 0=no damage to plant); for pest or weed control at 62.5 g/ha: 62.5 g ai/ha; for pest or weed control at 62.5 g/ha / pest or weed control at 250 g/ha: evaluated after 13 days, 100=total damage to plant, 0=no damage to plant; for pest or weed control at 250 g/ha: 250 g ai/ha
Method in brief: as §1

[7] = system: giant foxtail (Setaria faberi); assay: Test G Pre-Emergence Protocol; conditions: Setaria faberi, pre-emergence, 312 h, evaluated after 13 days; for pest or weed control at 15.625 g/ha: 15.625 g ai/ha; for pest or weed control at 15.625 g/ha / pest or weed control at 250 g/ha: read-out: Foxtail, Giant damage rating (100=total damage to plant; 0=no damage to plant); for pest or weed control at 62.5 g/ha: 62.5 g ai/ha, 100=total damage to plant, 0=no damage to plant, read-out: Foxtail, Giant damage rating; for pest or weed control at 250 g/ha: 250 g ai/ha
Method in brief: (§2)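 Pots of seeds in standard soil were grown for one day in a glasshouse (24/16 °C day/night, 14 h light, 65% humidity), then sprayed with compound in acetone/water 50:50 with 0.5% Tween 20 at 15.625, 62.5 or 250 g/ha. Damage was scored after 13 days on a 0 (none) to 100 (total) scale.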

[8] = system: ivy-leaved morning glory (Ipomoea hederacea); assay: Test G Pre-Emergence Protocol; conditions: Ipomoea, pre-emergence, 312 h, evaluated after 13 days; for pest or weed control at 15.625 g/ha: 15.625 g ai/ha; for pest or weed control at 15.625 g/ha / pest or weed control at 250 g/ha: read-out: Morningglory, Ivy-leaved damage rating (100=total damage to plant; 0=no damage to plant); for pest or weed control at 62.5 g/ha: 62.5 g ai/ha, 100=total damage to plant, 0=no damage to plant, read-out: Morningglory, Ivy-leaved damage rating; for pest or weed control at 250 g/ha: 250 g ai/ha
Method in brief: as §2

corn (Zea mays) [9] = assay: Test G Pre-Emergence Protocol; conditions: Zea mays, pre-emergence, 312 h, evaluated after 13 days; for plant injury at 15.625 g/ha: 15.625 g ai/ha; for plant injury at 15.625 g/ha / plant injury at 250 g/ha: read-out: Corn damage rating (100=total damage to plant; 0=no damage to plant); for plant injury at 62.5 g/ha: 62.5 g ai/ha, 100=total damage to plant, 0=no damage to plant, read-out: Corn damage rating; for plant injury at 250 g/ha: 250 g ai/ha
Method in brief: as §2

[10] = system: redroot pigweed (Amaranthus retroflexus); assay: Test G Pre-Emergence Protocol; conditions: Amaranthus retroflexus, pre-emergence, 312 h, evaluated after 13 days; for pest or weed control at 15.625 g/ha: 15.625 g ai/ha; for pest or weed control at 15.625 g/ha / pest or weed control at 250 g/ha: read-out: Pigweed, Redroot damage rating (100=total damage to plant; 0=no damage to plant); for pest or weed control at 62.5 g/ha: 62.5 g ai/ha, 100=total damage to plant, 0=no damage to plant, read-out: Pigweed, Redroot damage rating; for pest or weed control at 250 g/ha: 250 g ai/ha
Method in brief: as §2

[11] = system: barnyardgrass (Echinochloa crus-galli); assay: Test G Pre-Emergence Protocol; conditions: Echinochloa crus-galli, pre-emergence, 312 h, evaluated after 13 days; for pest or weed control at 15.625 g/ha: 15.625 g ai/ha; for pest or weed control at 15.625 g/ha / pest or weed control at 250 g/ha: read-out: Barnyardgrass damage rating (100=total damage to plant; 0=no damage to plant); for pest or weed control at 62.5 g/ha: 62.5 g ai/ha, 100=total damage to plant, 0=no damage to plant, read-out: Barnyardgrass damage rating; for pest or weed control at 250 g/ha: 250 g ai/ha
Method in brief: as §2

[12] = system: velvetleaf (Abutilon theophrasti); assay: Test G Pre-Emergence Protocol; conditions: Abutilon theophrasti, pre-emergence, 312 h, evaluated after 13 days; for pest or weed control at 15.625 g/ha: 15.625 g ai/ha; for pest or weed control at 15.625 g/ha / pest or weed control at 250 g/ha: read-out: Velvetleaf damage rating (100=total damage to plant; 0=no damage to plant); for pest or weed control at 62.5 g/ha: 62.5 g ai/ha, 100=total damage to plant, 0=no damage to plant, read-out: Velvetleaf damage rating; for pest or weed control at 250 g/ha: 250 g ai/ha
Method in brief: as §2

| Compound | pest or weed control at 15.625 g/ha [1] [%] | pest or weed control at 62.5 g/ha [1] [%] | pest or weed control at 250 g/ha [1] [%] | pest or weed control at 15.625 g/ha [2] [%] | pest or weed control at 62.5 g/ha [2] [%] | pest or weed control at 250 g/ha [2] [%] | plant injury at 15.625 g/ha (corn (Zea mays) [3]) [%] | plant injury at 62.5 g/ha (corn (Zea mays) [3]) [%] | plant injury at 250 g/ha (corn (Zea mays) [3]) [%] | pest or weed control at 15.625 g/ha [4] [%] | pest or weed control at 62.5 g/ha [4] [%] | pest or weed control at 250 g/ha [4] [%] | pest or weed control at 15.625 g/ha [5] [%] | pest or weed control at 62.5 g/ha [5] [%] | pest or weed control at 250 g/ha [5] [%] | pest or weed control at 15.625 g/ha [6] [%] | pest or weed control at 62.5 g/ha [6] [%] | pest or weed control at 250 g/ha [6] [%] | pest or weed control at 15.625 g/ha [7] [%] | pest or weed control at 62.5 g/ha [7] [%] | further results |
| --- | --- | --- | --- | --- | --- | --- | --- | --- | --- | --- | --- | --- | --- | --- | --- | --- | --- | --- | --- | --- | --- |
| CC1OC(=O)c2c(NC(=O)[C@H]3C(=O)N(C)C[C@@H]3c3ccc(C(F)(F)F)cc3)cccc21 (mixture of isomers) [Compound 1670] | 0 | 70 | 80 | 0 | 0 | 0 | 0 | 0 | 10 | 0 | 20 | 90 | 0 | 20 | 60 | 0 | 0 | 0 | 0 | 20 | pest or weed control at 250 g/ha [7]: 50%; pest or weed control at 15.625 g/ha [8]: 0%; pest or weed control at 62.5 g/ha [8]: 0%; pest or weed control at 250 g/ha [8]: 0%; plant injury at 15.625 g/ha (corn (Zea mays) [9]): 0%; plant injury at 62.5 g/ha (corn (Zea mays) [9]): 0%; plant injury at 250 g/ha (corn (Zea mays) [9]): 0%; pest or weed control at 15.625 g/ha [10]: 0%; pest or weed control at 62.5 g/ha [10]: 0%; pest or weed control at 250 g/ha [10]: 20%; pest or weed control at 15.625 g/ha [11]: 0%; pest or weed control at 62.5 g/ha [11]: 0%; pest or weed control at 250 g/ha [11]: 0%; pest or weed control at 15.625 g/ha [12]: 0%; pest or weed control at 62.5 g/ha [12]: 0%; pest or weed control at 250 g/ha [12]: 0% |
| CN1CCCC(NC(=O)[C@H]2C(=O)N(C)C[C@@H]2c2ccc(C(F)(F)F)cc2)C1=O (mixture of isomers) [Compound 1674] | 0 | 0 | 20 | 0 | 0 | 0 | 0 | 0 | 0 | 0 | 0 | 0 | 0 | 0 | 0 | 0 | 0 | 0 | 0 | 0 | pest or weed control at 250 g/ha [7]: 0%; pest or weed control at 15.625 g/ha [8]: 0%; pest or weed control at 62.5 g/ha [8]: 0%; pest or weed control at 250 g/ha [8]: 0%; plant injury at 15.625 g/ha (corn (Zea mays) [9]): 0%; plant injury at 62.5 g/ha (corn (Zea mays) [9]): 0%; plant injury at 250 g/ha (corn (Zea mays) [9]): 0%; pest or weed control at 15.625 g/ha [10]: 0%; pest or weed control at 62.5 g/ha [10]: 0%; pest or weed control at 250 g/ha [10]: 0%; pest or weed control at 15.625 g/ha [11]: 0%; pest or weed control at 62.5 g/ha [11]: 0%; pest or weed control at 250 g/ha [11]: 0%; pest or weed control at 15.625 g/ha [12]: 0%; pest or weed control at 62.5 g/ha [12]: 0%; pest or weed control at 250 g/ha [12]: 0% |
| CC(O)c1ccccc1NC(=O)[C@H]1C(=O)N(C)C[C@@H]1c1cccc(C(F)(F)F)c1 (mixture of isomers) [Compound 1783] | 80 | 80 | 80 | 10 | 60 | 70 | 70 | 80 | 80 | 0 | 0 | 20 | 70 | 80 | 80 | 0 | 20 | 50 | 80 | 90 | pest or weed control at 250 g/ha [7]: 90%; pest or weed control at 15.625 g/ha [8]: 10%; pest or weed control at 62.5 g/ha [8]: 10%; pest or weed control at 250 g/ha [8]: 40%; plant injury at 15.625 g/ha (corn (Zea mays) [9]): 50%; plant injury at 62.5 g/ha (corn (Zea mays) [9]): 80%; plant injury at 250 g/ha (corn (Zea mays) [9]): 90%; pest or weed control at 15.625 g/ha [10]: 0%; pest or weed control at 62.5 g/ha [10]: 0%; pest or weed control at 250 g/ha [10]: 40%; pest or weed control at 15.625 g/ha [11]: 50%; pest or weed control at 62.5 g/ha [11]: 90%; pest or weed control at 250 g/ha [11]: 90%; pest or weed control at 15.625 g/ha [12]: 0%; pest or weed control at 62.5 g/ha [12]: 10%; pest or weed control at 250 g/ha [12]: 70% |
